In patent US9458198B1, “Cyclic peptide-based NPR-B agonists” (priority 2009, dated 2016):
Where a SMILES comes first, the peptide text is derived from it. Bridges are numbered along the chain shown (N, C = ends). [ ]: non-standard residue; d: D form.

Biological target: T1, NPR-B (Homo sapiens, UniProt P20594)
T1 construct: a functional assay using endogenously NPR-B expressing GTM-3 cells; endogenous in cells; host or cells: GTM-3 (transformed human trabecular meshwork cells)
T1 sequence (P20594 23-1047): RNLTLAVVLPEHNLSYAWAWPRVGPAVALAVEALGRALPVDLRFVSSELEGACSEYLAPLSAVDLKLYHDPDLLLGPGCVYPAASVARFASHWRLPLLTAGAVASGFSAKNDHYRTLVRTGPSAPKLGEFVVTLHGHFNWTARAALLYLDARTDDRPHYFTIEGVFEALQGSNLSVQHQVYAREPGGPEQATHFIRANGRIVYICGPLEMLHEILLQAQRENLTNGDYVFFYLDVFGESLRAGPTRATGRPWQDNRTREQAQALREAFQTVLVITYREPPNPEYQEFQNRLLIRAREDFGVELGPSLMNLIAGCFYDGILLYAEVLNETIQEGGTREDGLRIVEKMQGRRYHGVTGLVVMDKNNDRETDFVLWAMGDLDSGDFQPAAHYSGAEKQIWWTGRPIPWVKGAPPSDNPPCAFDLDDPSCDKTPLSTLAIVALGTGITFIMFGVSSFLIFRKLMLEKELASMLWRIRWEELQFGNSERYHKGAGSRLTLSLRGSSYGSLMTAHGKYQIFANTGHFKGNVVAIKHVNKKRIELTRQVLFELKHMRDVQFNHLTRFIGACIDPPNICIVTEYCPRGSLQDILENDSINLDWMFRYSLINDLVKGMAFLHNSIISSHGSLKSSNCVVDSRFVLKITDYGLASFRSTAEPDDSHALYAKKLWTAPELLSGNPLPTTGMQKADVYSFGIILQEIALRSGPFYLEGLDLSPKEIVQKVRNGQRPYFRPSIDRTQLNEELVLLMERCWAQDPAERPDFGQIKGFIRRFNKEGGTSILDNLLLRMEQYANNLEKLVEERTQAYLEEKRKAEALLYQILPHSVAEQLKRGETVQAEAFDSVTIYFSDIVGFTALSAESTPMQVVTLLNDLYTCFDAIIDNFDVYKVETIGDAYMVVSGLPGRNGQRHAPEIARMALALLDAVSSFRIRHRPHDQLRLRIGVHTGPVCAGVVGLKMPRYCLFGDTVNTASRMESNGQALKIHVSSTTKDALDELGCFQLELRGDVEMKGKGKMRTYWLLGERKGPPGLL
Test: NPR-B induced production of cyclic GMP in GTM-3 cells
Format: cell-based
Conditions: Activity (group): NPR-B activation, EC50 and Emax (CNP = 100%)
Description: The efficacy and potency of compounds to activate NPR-B were evaluated in a functional assay using endogenously NPR-B expressing GTM-3 cells (Pang et al. 1994, Curr Eye Res 13:51-63). In this assay the dose dependent production of cyclic GMP (cGMP) is determined and Emax (maximum activation) and EC50 values are calculated.
The cell culture medium is aspirated and each well is washed with 200 μl DMEM/Ham's F12=Medium (Gibco). Then, 200 μl Medium supplemented with 1 mM IBMX (3-Isobutyl-1-methyl-xanthin, Sigma) is added to each well and incubated for 15 min. at room temperature.
Final compound concentrations are in the range from 45 μM to 20 nM.

Row | Structure (SMILES) | EC50 [µM]
1 | CCC(=O)N[C@H]1CSSC[C@@H](C(N)=O)NC(=O)[C@H](CO)NC(=O)[C@H]([C@@H](C)CC)NC(=O)[C@H](CCCNC(=N)N)NC(=O)[C@H](CC(=O)O)NC(=O)[C@H](CC(C)C)NC(=O)[C@H](CCCCN)NC(=O)[C@H](CC(C)C)NC(=O)CNC(=O)[C@H](Cc2ccccc2)NC(=O)[C@@H](C)NC1=O [compound 62] | < 5
2 | CC[C@H](C)[C@@H]1NC(=O)[C@H](CCCNC(=N)N)NC(=O)[C@H](CC(=O)O)NC(=O)[C@H](CC(C)C)NC(=O)[C@H](CCCCN)NC(=O)[C@H](CC(C)C)NC(=O)CNC(=O)[C@H](Cc2ccccc2)NC(=O)[C@@H](C)NC(=O)[C@@H](NC(=O)CC(C)C)CSSC[C@@H](C(N)=O)NC(=O)[C@H](CO)NC1=O [compound 63] | < 5
3 | CC[C@H](C)[C@@H]1NC(=O)[C@H](CCCNC(=N)N)NC(=O)[C@H](CC(=O)O)NC(=O)[C@H](CC(C)C)NC(=O)[C@H](CCCCN)NC(=O)[C@H](CC(C)C)NC(=O)CNC(=O)[C@H](Cc2ccccc2)NC(=O)[C@@H](C)NC(=O)[C@@H](NC(=O)CCC(C)C)CSSC[C@@H](C(N)=O)NC(=O)[C@H](CO)NC1=O [compound 64] | < 1
4 | CCCCCC(=O)N[C@H]1CSSC[C@@H](C(N)=O)NC(=O)[C@H](CO)NC(=O)[C@H]([C@@H](C)CC)NC(=O)[C@H](CCCNC(=N)N)NC(=O)[C@H](CC(=O)O)NC(=O)[C@H](CC(C)C)NC(=O)[C@H](CCCCN)NC(=O)[C@H](CC(C)C)NC(=O)CNC(=O)[C@H](Cc2ccccc2)NC(=O)[C@@H](C)NC1=O [compound 65] | < 1

Same assay, conditions: Activity (group): NPR-B activation, EC50 and Emax (CNP = 100%), GTM-3 cells; group needs both EC50 and Emax criteria, checked A then B then C

Row | Structure (SMILES) | EC50 [µM]
5 | CC[C@H](C)[C@@H]1NC(=O)[C@H](CCCNC(=N)N)NC(=O)[C@H](CC(=O)O)NC(=O)[C@H](CC(C)C)NC(=O)[C@@H]2CCCN2C(=O)[C@H](CC(C)C)NC(=O)CNC(=O)[C@H](Cc2ccccc2)NC(=O)[C@@H](C)NC(=O)[C@@H](NC(=O)[C@@H](N)CCSC)CSSC[C@@H](C(N)=O)NC(=O)[C@H](CO)NC1=O [compound 49] | < 1
6 | CC[C@H](C)[C@@H]1NC(=O)[C@H](CCCNC(=N)N)NC(=O)[C@H](CC(=O)O)NC(=O)[C@H](CC(C)C)NC(=O)[C@H](CCCCN)NC(=O)[C@H](CC(C)C)NC(=O)CNC(=O)[C@H](Cc2ccccc2)NC(=O)[C@@H](C)NC(=O)[C@@H](NC(=O)c2ccccc2)CSSC[C@@H](C(N)=O)NC(=O)[C@H](CO)NC1=O [compound 66] | < 5

Same assay, conditions: GTM-3 cells; group needs both EC50 and Emax criteria, checked A then B then C; read-out: Activity (group): NPR-B activation, EC50 and Emax (CNP = 100%)

Row | Structure (SMILES) | EC50 [µM]
7 | CC[C@H](C)[C@@H]1NC(=O)[C@H](CCCNC(=N)N)NC(=O)[C@H](CC(=O)O)NC(=O)[C@H]([C@@H](C)CC)NC(=O)[C@H](CCCCN)NC(=O)[C@H](CC(C)C)NC(=O)CNC(=O)[C@H](Cc2ccccc2)NC(=O)[C@@H](C)NC(=O)[C@@H](NC(=O)[C@@H](N)CCSC)CSSC[C@@H](C(N)=O)NC(=O)[C@H](CO)NC1=O [compound 53] (H-MC[dA]FGLKIDRISC-NH2; disulfide 2-13) | < 1
8 | CC[C@H](C)[C@@H]1NC(=O)[C@H](CCCNC(=N)N)NC(=O)[C@H](CC(=O)O)NC(=O)[C@H](C(C)C)NC(=O)[C@H](CCCCN)NC(=O)[C@H](CC(C)C)NC(=O)CNC(=O)[C@H](Cc2ccccc2)NC(=O)[C@@H](C)NC(=O)[C@@H](NC(=O)[C@@H](N)CCSC)CSSC[C@@H](C(N)=O)NC(=O)[C@H](CO)NC1=O [compound 54] (H-MC[dA]FGLKVDRISC-NH2; disulfide 2-13) | < 5
9 | CSCC[C@H](N)C(=O)N[C@H]1CSSC[C@@H](C(N)=O)NC(=O)[C@H](CO)NC(=O)[C@H](CC(C)C)NC(=O)[C@H](CCCNC(=N)N)NC(=O)[C@H](CC(=O)O)NC(=O)[C@H](CC(C)C)NC(=O)[C@H](CCCCN)NC(=O)[C@H](CC(C)C)NC(=O)CNC(=O)[C@H](Cc2ccccc2)NC(=O)[C@@H](C)NC1=O [compound 56] (H-MC[dA]FGLKLDRLSC-NH2; disulfide 2-13) | < 5
10 | CSCC[C@H](N)C(=O)N[C@H]1CSSC[C@@H](C(N)=O)NC(=O)[C@H](CO)NC(=O)[C@H](C(C)C)NC(=O)[C@H](CCCNC(=N)N)NC(=O)[C@H](CC(=O)O)NC(=O)[C@H](CC(C)C)NC(=O)[C@H](CCCCN)NC(=O)[C@H](CC(C)C)NC(=O)CNC(=O)[C@H](Cc2ccccc2)NC(=O)[C@@H](C)NC1=O [compound 57] (H-MC[dA]FGLKLDRVSC-NH2; disulfide 2-13) | < 5
